Results taken from paper PMC9159100, “Intramitochondrial co-assembly between ATP and nucleopeptides induces cancer cell apoptosis” (Chemical Science, 2022).
Square brackets hold non-standard residues; d marks the D form. Peptide text beside a SMILES is read from it. * marks the point of attachment. Acetyl(thymin-1-yl) = Cc1cn(CC(=O)*)c(=O)[nH]c1=O; Cha = N[C@@H](CC1CCCCC1)C(=O)O

What was measured:
[1] = test system: IMR90 cells; format: cell-based
Method: page 16: S7. Cell culture and MTT assay Cell culture: HeLa and IMR90 cells were purchased from American-type Culture Collection (ATCC, USA). Hela and IMR90 were cultured in Dulbecco’s Modified Eagle’s medium (DMEM) supplemented with 10% v fetal bovine serum (FBS), 100 U/mL penicillin and 100 μg/mL streptomycin. All cells were cultured at 37 °C in a […] For MTT assay, cells were seeded in a 96-well plate with the density of 5*103 cells per-well. After 24 hours seeding, the solutions of samples with a serial of concentr ations (5 concentrations and control) were added to each well. 10 μL MTT solution (5 mg/mL) was added to each well and incubated at 37°C for 2 days incubation and incubated for another 4 h, and then 100 μL of SDS-HCl solution was added to stop the reductio n reaction and dissolve the purple formazan. The absorbance of each well at 595 nm was measured by a multimode microplate reader. The cytotoxicity assay was performed three times and the average value of the three measurements was taken. ATP depletion method: Cells were pre -incubated with 10 mM sodium azide ( NaN3), 6 mM 2DG(2-deoxy-glucose) […] After 40 minutes, cells were washed with PBS and free medium. MNP/ADP complex was treated to ATP depleted HeLa cells for 48 hours to assess cytotoxicity.

[2] = Turbidity / appearance of aqueous solution (photograph, transmittance at 280 nm); format: physicochemical; settings: 200 μM in aqueous solution, ATP added
Method: First, we investigated the self-assembly ability and interaction between MNP and ADP or ATP. […] As can be evinced from Fig. 1b and c, the formed nanostructure consisted of approximately 500 nm-sized micellar structures according to transmission electron microscopy (TEM) and scanning electron microscopy (SEM). This is further confirmed by the turbidity of the solution which was determined by transmittance using UV-Vis spectroscopy. […] Transmission electron (TEM) microscopy images of (a) MNP/ADP complex (scale bar: 100 nm) and (b) MNP/ATP complex at 200 μM concentration in aqueous solution (scale bar: 500 nm); (c) scanning electron microscopy image of the MNP/ATP complex at 200 μM concentration in aqueous solution (scale bar: 500 nm); (d) sample turbidity measured by transmittance at 280 nm (inset: photograph) of the MNP, MNP/ADP complex and MNP/ATP complex at 200 μM concentration in aqueous solution; (e) confocal images of the MNP-NBD/ATP complex (Scale bar: 1 μm); (f) photograph of the aqueous solutions of the control molecules (AcNP and MNP2) and MNP in a complex with ATP (concentration: 200 μM). […] S3. ^† Micellar structures characterized by green fluorescence (Fig. 1e) were observed by confocal laser scanning microscopy performed on the MNP-NBD/ATP complex at 200 μM concentration in aqueous solution. […]

Row | appearance of solution in the presence of ATP [2] | Structure (SMILES) | toxicity toward IMR90 cells above 25 μM [1] | toxicity toward IMR90 cells at 25 μM [1]
1 |  | CC(=O)N[C@H](CCCNC(=N)N)C(=O)N[C@H](CCCNC(=N)N)C(=O)N[C@@H](CC1CCCCC1)C(=O)N[C@H](CCCNC(=N)N)C(=O)N[C@@H](CC1CCCCC1)C(=O)N[C@H](CCCNC(=N)N)C(=O)N[C@@H](CC1CCCCC1)C(=O)N[C@@H](Cc1ccccc1)C(=O)N[C@@H](Cc1ccccc1)C(=O)O [AcNP, Ac–rrFxrFxrFxFF] (Ac-[dR][dR][Cha][dR][Cha][dR][Cha]FF-OH) | less toxicity | almost no toxicity
2 | did not become cloudy | Cc1cn(CC(=O)N[C@H](CCCNC(=N)N)C(=O)N[C@H](CCCNC(=N)N)C(=O)N[C@@H](CC2CCCCC2)C(=O)N[C@H](CCCNC(=N)N)C(=O)N[C@@H](CC2CCCCC2)C(=O)N[C@H](CCCNC(=N)N)C(=O)N[C@@H](CC2CCCCC2)C(=O)O)c(=O)[nH]c1=O [MNP2, Thy–rrFxrFxrFx] ({Acetyl(thymin-1-yl)}-[dR][dR][Cha][dR][Cha][dR][Cha]-OH) |  | 
